Measurements reported in patent US20050143354A1, “Association of an antithrombotic and aspirin” (priority 2002, published 2005).

Test system: arterial thrombosis in the guinea-pig
Experiment: arterial thrombosis test in the guinea-pig (cyclic flow reductions after carotid artery lesion)
Format: in vivo
Conditions: aspirin 2 mg/kg i.v. alone; not different from control animals
Excerpt: This test is based on the model initially described by Roux et al. (Thromb Haemost 71: 252-256, 1994). The guinea-pigs are anaesthetised using ketamine+xylazine (90+12) mg.kg i.m.. The trachea is cannulated and spontaneous respiration by the animals maintained. The jugular vein is cannulated, allowing the intravenous administration of the compounds being tested. The carotid artery is isolated, and a Doppler probe is installed allowing the arterial blood flow to be measured. After stabilisation, a lesion to the artery wall is produced by means of a clip applied distally to the Doppler probe. Subsequent to that lesion, the blood flow decreases. When the flow reaches zero, the artery is lightly shaken, which allows the flow to be restored. The thrombosis process continues, leading again to the flow reducing and ceasing. The thrombotic phenomena accordingly result in cyclic flow reductions (CFR), which are observed over a period of 20 minutes. After that period, the animal is treated, or not, with compound (A), and the CFR are again observed for a period of 20 minutes. The experiments are carried out in control animals or in animals treated by the intravenous route with aspirin (2 mg/kg).
This study was carried out using the sodium salt of the (R) isomer of compound (A).

With `CC(=O)Oc1ccccc1C(=O)O` [aspirin] as the molecule, how does the “cyclic flow reductions (CFR)” value read?
The value was 8±1 CFR/20 min.
